# Assay results from paper PMC8454699, “Structure and function of aerotolerant, multiple-turnover THI4 thiazole synthases” (Biochemical Journal, 2021).
# Molecular target: T1, Thermovibrio ammonificans THI4 (TaTHI4) (Thermovibrio ammonificans, UniProt E8T346)
# T1 construct: N-terminal His6 tag (pBAD24, recoded gene), E. coli BL21(DE3); homooctamer, four monomers per asymmetric unit; anaerobically reconstituted with Fe(II), NAD+ and glycine
# Experiment: X-ray crystallography, […] A
# Assay type: binding
# Conditions: reaction intermediate formed from NAD+ and glycine; Fe(II)-reconstituted, anaerobic; pH 7.5, 22 °C; active site, pincer-type ligand of Fe(II)
smiles,measurement,value
CC(N=CC(=O)O)C(=O)C(O)COP(=O)(O)OP(=O)(O)OC[C@H]1O[C@@H](n2cnc3c(N)ncnc32)[C@H](O)[C@@H]1O (stereo partly shown) [glycine imine intermediate],"X-ray crystallography, 2.3 A",Clear density for the TaTHI4 treated with NAD and glycine shows the expected glycine imine
